Earlier results in patent US6340756B1, “Process for preparing a 2-(2-amino-1, 6-dihydro-6-oxo-purin-9-yl)methoxy-1,3-propanediol derivative” (Syntex (U.S.A.) Inc., priority 1996, dated 2002).

Key:
[1] = rats, urinary recovery of acyclovir, Beauchamp et al. 1992
[2] = EP 0 694 547 A
[3] = EP 0 694 547 A; remark: listed apart in the source
[4] = EP 0 308 065 A2

SMILES	amount of the parent drug (acyclovir) in the urine compared with acyclovir itself [1]	further results
CC[C@H](N)C(=O)OCCOCn1cnc2c(=O)[nH]c(N)nc21	greater amounts of the parent drug in the urine than acyclovir itself	–
CC(N)C(=O)OCCOCn1cnc2c(=O)[nH]c(N)nc21 (racemic) [D,L-alanyl]	greater amounts of the parent drug in the urine than acyclovir itself	–
CC(C)C(N)C(=O)OCCOCn1cnc2c(=O)[nH]c(N)nc21 (racemic) [D,L-valyl]	greater amounts of the parent drug in the urine than acyclovir itself	–
CCC(C)C(N)C(=O)OCCOCn1cnc2c(=O)[nH]c(N)nc21 (racemic) [DL-isoleucyl]	greater amounts of the parent drug in the urine than acyclovir itself	–
CC(C)[C@@H](N)C(=O)OCC(CO)OCn1cnc2c(O)nc(N)nc21 (stereo partly drawn) [2-(2-amino-1,6-dihydro-6-oxo-purin-9-yl)methoxy-3-hydroxy-1-propyl-L-valinate]	–	oral absorption [2]: improved oral absorption; toxicity [3]: low toxicity
C[C@H](N)C(=O)OCCOCn1cnc2c(=O)[nH]c(N)nc21 [L-alanyl]	greater amounts of the parent drug in the urine than acyclovir itself	–
CC[C@H](C)[C@H](N)C(=O)OCCOCn1cnc2c(=O)[nH]c(N)nc21 [L-isoleucyl]	greater amounts of the parent drug in the urine than acyclovir itself	–
CSCC[C@H](N)C(=O)OCCOCn1cnc2c(=O)[nH]c(N)nc21 [L-methionyl]	greater amounts of the parent drug in the urine than acyclovir itself	–
Nc1nc2c(ncn2COCCOC(=O)C2CCCN2)c(=O)[nH]1 [L-prolyl]	greater amounts of the parent drug in the urine than acyclovir itself	–
CC(C)[C@H](N)C(=O)OCCOCn1cnc2c(=O)nc(N)[nH]c21 [L-valyl]	greater amounts of the parent drug in the urine than acyclovir itself	rank as prodrug among the esters investigated ([1]; eighteen amino acid esters): best prodrug
NCC(=O)OCCOCn1cnc2c(=O)[nH]c(N)nc21 [glycyl]	greater amounts of the parent drug in the urine than acyclovir itself	–
CC(C)[C@H](N)C(=O)OCCOCn1cnc2c(=O)nc(N)[nH]c21 [valine ester of acyclovir]	–	absorption from the gut after oral administration, compared with other esters and acyclovir [4]: large increase in absorption
